Measured values published in patent publication US20100168102A9, “Amide Derivatives as Kinase Inhibitors” (Devgen NV, priority 2005, published 2010).
Structures can show the parent of a compound that is named as a salt. Where two headings read alike, the source gives them in different places.

Assays:
[1] = molecular target: T1, PKC epsilon (Homo sapiens, UniProt Q02156); experiment: Biochemical assay for PKC epsilon (fluorescence polarization, Protein Kinase C Assay Kit, Red); conditions: read-out: IC50 μM PKCε
T1 construct: purchased Invitrogen P2282
T1 sequence (Q02156 1-737): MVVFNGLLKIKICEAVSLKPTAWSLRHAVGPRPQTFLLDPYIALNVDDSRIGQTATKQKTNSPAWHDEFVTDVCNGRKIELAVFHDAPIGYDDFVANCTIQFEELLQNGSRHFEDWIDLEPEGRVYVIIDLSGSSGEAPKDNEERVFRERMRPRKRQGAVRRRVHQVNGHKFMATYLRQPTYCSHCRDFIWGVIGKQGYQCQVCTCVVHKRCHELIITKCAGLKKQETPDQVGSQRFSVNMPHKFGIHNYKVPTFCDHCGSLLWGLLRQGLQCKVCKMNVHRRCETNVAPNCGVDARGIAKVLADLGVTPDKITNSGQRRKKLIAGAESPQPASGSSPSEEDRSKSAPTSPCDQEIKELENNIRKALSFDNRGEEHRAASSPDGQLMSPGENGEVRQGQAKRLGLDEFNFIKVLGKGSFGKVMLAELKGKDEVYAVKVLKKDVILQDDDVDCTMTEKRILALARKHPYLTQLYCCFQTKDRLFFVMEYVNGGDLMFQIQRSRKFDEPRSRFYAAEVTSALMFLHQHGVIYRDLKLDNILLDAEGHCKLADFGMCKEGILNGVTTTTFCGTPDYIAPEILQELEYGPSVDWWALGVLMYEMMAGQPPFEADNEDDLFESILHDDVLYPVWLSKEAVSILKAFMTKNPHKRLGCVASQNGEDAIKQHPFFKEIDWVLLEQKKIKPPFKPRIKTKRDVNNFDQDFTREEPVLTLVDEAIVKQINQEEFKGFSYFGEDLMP
Outline: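 Read-out was fluorescence-polarization competition between phosphorylated substrate and a rhodamine PKC tracer for an anti-phosphoserine antibody, added with EDTA stop after an 80 min room-temperature kinase reaction with ATP and protein substrate (Mg2+/Ca2+ buffer). Enzyme (10 ng/ml final) was preincubated with compound for 30 min.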

[2] = molecular target: T2, PKC theta (Homo sapiens, UniProt Q04759); experiment: Biochemical assay for PKC theta (fluorescence polarization, Protein Kinase C Assay Kit, Red)
T2 construct: purchased Invitrogen P2996
T2 sequence (Q04759 whole entry): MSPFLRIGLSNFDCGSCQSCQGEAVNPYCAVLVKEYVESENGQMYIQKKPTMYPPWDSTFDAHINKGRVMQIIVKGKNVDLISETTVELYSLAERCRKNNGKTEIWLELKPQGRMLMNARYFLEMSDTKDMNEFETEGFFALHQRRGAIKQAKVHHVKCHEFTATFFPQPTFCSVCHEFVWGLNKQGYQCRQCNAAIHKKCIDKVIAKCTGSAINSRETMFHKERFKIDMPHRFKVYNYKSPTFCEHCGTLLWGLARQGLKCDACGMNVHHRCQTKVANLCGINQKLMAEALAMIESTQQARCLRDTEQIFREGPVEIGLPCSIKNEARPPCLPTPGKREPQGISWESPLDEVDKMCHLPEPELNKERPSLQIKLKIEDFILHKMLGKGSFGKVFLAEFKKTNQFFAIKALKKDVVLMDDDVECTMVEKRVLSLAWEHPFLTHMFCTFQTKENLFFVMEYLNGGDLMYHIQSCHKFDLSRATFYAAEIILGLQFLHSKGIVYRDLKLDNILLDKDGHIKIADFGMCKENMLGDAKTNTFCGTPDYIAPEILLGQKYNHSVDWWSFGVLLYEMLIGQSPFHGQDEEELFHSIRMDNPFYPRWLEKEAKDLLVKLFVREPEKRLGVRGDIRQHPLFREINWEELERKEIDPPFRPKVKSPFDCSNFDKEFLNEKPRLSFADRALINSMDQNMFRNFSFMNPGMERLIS
Method: The compounds were tested for inhibition of PKC theta.
The inhibition assays were performed with a fluorescence polarization (FP) assay using the commercially available Protein Kinase C Assay Kit, Red, from Invitrogen (Product ID. No. P2941), essentially in accordance with the protocol supplied by the manufacturer. The substrate used was […] (Mw 1561), also obtained from Invitrogen (Product ID No. P2760). The isozyme PKC theta was also obtained from Invitrogen (Product ID No. P2996).
Staurosporine was used as a positive control (2 μM).
To perform the assay, 2 μl, of a solution of the compound to be tested in DMSO (at each concentration) was added to 6 μl of a solution of the enzyme in 10 mM HEPES, 5 mM dithiotreitol, 0.1% Triton X-100, pH 7.4. The final concentration of the enzymes was 60 ng/ml.
After incubating for 30 minutes at room temperature, 4 μl of a mixture of ATP and the protein substrate in 60 mM HEPES (pH7.4), 15 mM MgCl2, 0.3 mM CaCl2, 0.06% NP40 was added. The final concentration of the ATP was 2.5 μM and final concentration of protein substrate was 1 μM.
After incubating for 80 minutes at room temperature, 3 μl of a mix solution of 500 mM EDTA (stop solution) and the Rhodamine-based PKC Red Tracer (from the Protein Kinase C Assay Kit) in BGG/phosphate buffer (pH7.4) with 0.02% NaN3 and 0.1% Triton X-100 was added and 5 μl of a the Anti-Phosphoserine antibody (also from the Protein Kinase C Assay Kit) in BGG/phosphate buffer (pH7.4) with 0.02% NaN3.
The mixture thus obtained (total volume: 20 μl) was incubated for 60 minutes at room temperature, upon which the fluorescence polarization was measured using an automated plate reader (Perkin Elmer, Model Envision 2100-0010 HTS) with FP filters for rhodamine: excitation fitter FITC FP 531 and emission filters FITC FP P-pol 595 and FITC FP S-pol 595 (Perkin-Elmer). The results were fitted to a curve using the XL-Fit algorithm and IC50 values were calculated for each fitted curve, again using the XL-Fit algorithm.

[3] = molecular target: T3, human ROCKα/ROCKII mix (Homo sapiens, UniProt O75116); experiment: Biochemical assay for ROCK (fluorescence polarization, ROCK IMAP Kit)
T3 construct: purchased Upstate Biotechnology 14-451
T3 sequence (O75116 11-552 limits assumed): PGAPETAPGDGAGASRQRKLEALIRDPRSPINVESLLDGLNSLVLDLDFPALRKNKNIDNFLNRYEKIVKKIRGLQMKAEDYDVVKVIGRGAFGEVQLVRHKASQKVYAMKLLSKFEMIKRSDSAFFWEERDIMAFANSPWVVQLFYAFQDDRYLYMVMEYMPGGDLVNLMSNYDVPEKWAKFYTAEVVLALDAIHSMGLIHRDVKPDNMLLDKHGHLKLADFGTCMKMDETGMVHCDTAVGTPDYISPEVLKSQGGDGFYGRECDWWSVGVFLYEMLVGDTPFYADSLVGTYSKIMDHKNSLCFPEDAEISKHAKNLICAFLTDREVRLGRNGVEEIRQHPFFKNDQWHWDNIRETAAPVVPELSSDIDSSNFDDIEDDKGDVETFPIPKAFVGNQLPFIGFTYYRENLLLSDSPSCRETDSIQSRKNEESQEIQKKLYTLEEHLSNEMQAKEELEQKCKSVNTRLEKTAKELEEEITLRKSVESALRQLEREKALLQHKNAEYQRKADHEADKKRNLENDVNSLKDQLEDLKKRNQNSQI

[4] = system: PKCε; experiment: Reporter assay (PathDetect trans reporter, Elk/SEAP) in reporter cell-lines over-expressing PKCε; assay type: cell-based
Text: Whereas the reporter assay is focused on PKCε specific inhibition in a recombinant system, the monocytes assay is a biomarker assay that can be performed in isolated monocytes, full blood and in vivo to follow the pharmacological reduction of cytokine production:
The reporter assay exploits the effect of over-expressed PKCε on kinase activation and phosphorylation of a transcription factor to evaluate the potency and selectivity of PKCε inhibitors in a cellular context.
It has been shown by jae-Won Soh et al (MCB, February 1999 p 1313-1324) that over-expression of PKC epsilon results in the activation of MAPK-pathway (c-raf/MEK/ERK) leading to the activation of Elk transcription factor. This event can be monitored using the PathDetect trans reporter assay system (Stratagene): pFA2-ELK codes for a fusion protein between the Gal4 DNA binding domain and the transactivation domain of Elk which drives the expression of a secreted alkaline phosphatase (SEAP) reporter gene.
Compounds are incubated with reporter cell-lines either over-expressing PKCε, leading to continued activation of the kinase, or mock transfected cells. Inhibition of the PKCε induced signal in the absence of an effect on the basal level (mock transfected cells) is indicative for selective PKCε inhibition.

[5] = Table 2, compounds of Formula XIII
[6] = compounds of Formula XIV, Table 3

Molecule | IC50 [1] [µM] | IC50 [3] [µM] | other results
NC(CNC(=O)C1(c2ccc(Cl)cc2)CC1)c1ccc(C(=O)Nc2ccncc2)cc1 (stereo not drawn) [Compound 168, 4-(1-Amino-2-{[1-(4-chloro-phenyl)-cyclopropanecarbonyl]-amino}-ethyl)-N-pyridin-4-yl-benzamide dihydrochloride] | – | – | IC50 [1, 5]: < 0.05 µM; IC50 [2]: 50 to 500 nM; IC50 [3, 5]: 0.05 to 0.5 µM
NC(CNC(=O)C1(c2ccc(F)cc2)CC1)c1ccc(C(=O)Nc2ccncc2)cc1 (stereo not drawn) [Compound 340, 4-(1-Amino-2-{[1-(4-fluoro-phenyl)-cyclopropanecarbonyl]-amino}-ethyl)-N-pyridin-4-yl-benzamide] | – | – | IC50 [1, 5]: < 0.05 µM; IC50 [4]: < 5000 nM
NC(CNC(=O)C1CCCCc2ccc(F)cc21)c1ccc(C(=O)Nc2ccncc2)cc1 (stereo not drawn) [Compound 356, 3-Fluoro-6,7,8,9-tetrahydro-5H-benzocycloheptene-5-carboxylic acid {2-amino-2-[4-(pyridin-4-ylcarbamoyl)-phenyl]-ethyl}-amide] | – | – | IC50 [1, 5]: < 0.05 µM; IC50 [3, 5]: 0.05 to 0.5 µM; IC50 [4]: < 5000 nM
N[C@H](CC(=O)N[C@@H]1CCCc2ccccc21)c1ccc(C(=O)Nc2ccncc2)cc1 [Compound 373, 4-{(R)-1-Amino-2-[(R)-(1,2,3,4-tetrahydro-naphthalen-1-yl)carbamoyl]-ethyl}-N-pyridin-4-yl-benzamide dihydrochloric acid salt] | < 0.05 | < 0.05 | IC50 [4]: < 5000 nM
NC(c1ccc(C(=O)Nc2ccncc2)cc1)C1CCCN1C(=O)C1(c2ccc(F)c(Cl)c2)CC1 (stereo not drawn) [Compound 607, 4-(Amino-{1-[1-(3-chloro-4-fluoro-phenyl)-cyclopropanecarbonyl]-pyrrolidin-2-yl}-methyl)-N-pyridin-4-yl-benzamide] | 0.5 to 5 | 0.5 to 5 | –
NC(c1ccc(C(=O)Nc2ccncc2)cc1)C1CCCN1C(=O)C1CCc2ccccc21 (stereo not drawn) [Compound 608, 4-{Amino-[1-(indane-1-carbonyl)-pyrrolidin-2-yl]-methyl}-N-pyridin-4-yl-benzamide] | 0.5 to 5 | 0.5 to 5 | –
NC(c1ccc(C(=O)Nc2ccncc2)cc1)C1CCCN1C(=O)C1CC(=O)c2ccccc21 (stereo not drawn) [Compound 609, 4-{Amino-[1-(3-oxo-indane-1-carbonyl)-pyrrolidin-2-yl]-methyl}-N-pyridin-4-yl-benzamide] | 0.5 to 5 | 0.5 to 5 | –
NC(c1ccc(C(=O)Nc2ccncc2)cc1)C1CCCN1C(=O)C1CCc2cc(F)ccc21 (stereo not drawn) [Compound 610, 4-{Amino-[1-(5-fluoro-indane-1-carbonyl)-pyrrolidin-2-yl]-methyl}-N-pyridin-4-yl-benzamide] | 5 to 50 | 0.5 to 5 | –
NC(c1ccc(C(=O)Nc2ccncc2)cc1)C1CCCN1C(=O)C1CCCc2ccccc21 (stereo not drawn) [Compound 613, 4-{Amino-[1-(1,2,3,4-tetrahydro-naphthalene-1-carbonyl)-pyrrolidin-2-yl]-methyl}-N-pyridin-4-yl-benzamide] | 0.5 to 5 | 0.5 to 5 | –
NC(c1ccc(C(=O)Nc2ccncc2)cc1)C1CCCN1C(=O)C1CCOc2ccccc21 (stereo not drawn) [Compound 615, 4-{Amino-[1-(chroman-4-carbonyl)-pyrrolidin-2-yl]-methyl}-N-pyridin-4-yl-benzamide] | 5 to 50 | 0.5 to 5 | –
NC(c1ccc(C(=O)Nc2ccncc2)cc1)C1CCCN1C(=O)C1CCOc2ccc(Cl)cc21 (stereo not drawn) [Compound 616, 4-{Amino[1-(6-chloro-chroman-4-carbonyl)-pyrrolidin-2-yl]-methyl}-N-pyridin-4-benzamide] | 0.5 to 5 | 0.5 to 5 | –
CC(C)(NC(=O)CC(N)c1ccc(C(=O)Nc2ccncc2)cc1)c1ccc(Cl)cc1 (stereo not drawn) [Compound 622, 4-{1-Amino-2-[1-(4-chloro-phenyl)-1-methyl-ethylcarbamoyl]-ethyl}-N-pyridin-4-yl-benzamide] | – | – | IC50 [1, 6]: 0.05 to 0.5 µM; IC50 [3, 6]: 0.05 to 0.5 µM
Bicyclo[4.2.0]octa-1(6),2,4- triene-7-carboxylic acid {2- amino-2-[4-(pyridin-4- ylcarbamoyl)-phenyl]-ethyl}- methyl-amide [Compound 451] | 5 to 50 | 0.05 to 0.5 | –
Chroman-4-carboxylic acid {2-amino-2-[4-(pyridin-4- ylcarbamoyl)-phenyl]-ethyl}- methyl-amide [Compound 514] | 5 to 50 | 0.5 to 5 | –
Indan-1-carboxylic acid {2- amino-2-[4-(pyridin-4- ylcarbamoyl)-phenyl]-ethyl}- methyl-amide [Compound 507] | 5 to 50 | 0.5 to 5 | –
N-{2-Amino-2-[4-(pyridin-4- ylcarbamoyl)-phenyl]-ethyl}- nicotinamide [Compound 107] | – | – | IC50 [1, 5]: 0.5 to 5 µM; IC50 [3, 5]: 0.5 to 5 µM

More lines, main results first:

IC50 [1] [µM] | IC50 [3] [µM] | Molecule | other results
0.5 to 5 | 0.5 to 5 | NC(c1ccc(C(=O)Nc2ccncc2)cc1)C1CCCN1C(=O)C1CCOc2ccc(F)cc21 (stereo not drawn) [Compound 617, 4-{Amino[1-(6-fluoro-chroman-4-carbonyl)-pyrrolidin-2-yl]-methyl}-N-pyridin-4-benzamide] | –
0.5 to 5 | 0.5 to 5 | NC(c1ccc(C(=O)Nc2ccncc2)cc1)C1CCCN1C(=O)C1CCSc2ccccc21 (stereo not drawn) [Compound 618, 4-{Amino[1-(thiochroman-4-carbonyl)-pyrrolidin-2-yl]-methyl}-N-pyridin-4-yl-benzamide] | –
0.5 to 5 | 0.5 to 5 | NC(c1ccc(C(=O)Nc2ccncc2)cc1)C1CCCN1C(=O)C1CCSc2ccc(F)cc21 (stereo not drawn) [Compound 619, 4-{Amino[1-(6-fluoro-thiochroman-4-carbonyl)-pyrrolidin-2-yl]-methyl}-N-pyridin-4-yl-benzamide] | –
5 to 50 | 5 to 50 | NC(c1ccc(C(=O)Nc2ccncc2)cc1)C1CCCN1C(=O)C1CCCCc2ccc(F)cc21 (stereo not drawn) [Compound 620, 4-{Amino-[1-(3-fluoro-6,7,8,9-tetrahydro-5H-benzocycloheptene-5-carbonyl)-pyrrolidin-2-yl]-methyl}-N-pyridin-4-yl-benzamide] | –
0.5 to 5 | 0.05 to 0.5 | NC(c1ccc(C(=O)Nc2ccncc2)cc1)C1CCCN1C(=O)C1CCCc2sccc21 (stereo not drawn) [Compound 621, 4-{Amino-[1-(4,5,6,7-tetrahydro-benzo[b]thiophene-4-carbonyl)-pyrrolidin-2-yl]-methyl}-N-pyridin-4-yl-benzamide] | –
